Where “and” joins values, the source holds several entries; their conditions need not be identical. Equal values may be shown once.
What was measured:
[1] = molecular target: T1, Dopamine D3 receptor (Homo sapiens, UniProt P35462); experiment: In vitro dopamine D3 receptor function experiment (CHO-K1/D3/CRE reporter, chemiluminescence); format: cell-based; conditions: for EC50: forskolin 0.4 µM; for Emax: maximum activation rate
T1 construct: expressed in transfected cells; host or cells: CHO-K1
T1 sequence (P35462 whole entry, species assumed): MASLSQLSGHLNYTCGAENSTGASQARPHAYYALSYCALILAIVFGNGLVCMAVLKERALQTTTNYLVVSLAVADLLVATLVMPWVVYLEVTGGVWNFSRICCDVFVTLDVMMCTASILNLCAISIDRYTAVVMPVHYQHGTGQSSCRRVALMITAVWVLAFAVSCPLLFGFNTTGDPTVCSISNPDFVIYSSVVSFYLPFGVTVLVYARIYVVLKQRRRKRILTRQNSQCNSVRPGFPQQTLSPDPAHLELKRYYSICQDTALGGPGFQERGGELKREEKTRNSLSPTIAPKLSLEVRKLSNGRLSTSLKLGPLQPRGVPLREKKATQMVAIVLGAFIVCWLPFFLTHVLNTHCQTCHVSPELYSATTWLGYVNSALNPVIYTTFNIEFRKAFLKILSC
Protocol: 3.1.1 Cell information: CHO-K1/D3/CRE constructed by referring to the method in Example 5 of CN114369578A.
The first day: cell plating • (1) The cultured cells were digested with trypsin, and after the digestion was terminated with culture medium, the cell suspension was transferred to a centrifuge tube and centrifuged at 750 rpm for 5 min. • (2) The supernatant was discarded, and the pellet was resuspended in an appropriate amount of plating medium.
The following day: experimental detection • (1) The test compounds were diluted to 0.2 mM with DMSO, and the reference compound dopamine was diluted to 0.02 mM. • (2) Compound dilution (4-fold dilution at 8 concentration points) was performed using Bravo, with the starting concentrations of the test compounds and the reference compound being 5 µM and 500 nM, respectively. […] The program selected was an ultrasensitive chemiluminescence detection program.

[2] = In vitro liver microsome stability, human; conditions: for CLint(liver): Human liver microsomes; for CLint scaled at 1 µM / half-life at 1 µM / microsomal CLint at 1 µM: human, liver microsomes, pH 7.4
Protocol: (§1) • (1) Buffer preparation: 73.21 g of dipotassium hydrogen phosphate trihydrate and 10.78 g of potassium dihydrogen phosphate were dissolved in 4000 mL of ultrapure water. The pH of the solution was adjusted to within 7.40 ± 0.10 using 10% phosphoric acid or 1 M potassium hydroxide, resulting in a final concentration of 100 mM. • (2) Solution preparation and dilution: Stock solutions of the test compounds at a concentration of 10 mM were prepared in dimethyl sulfoxide (DMSO) and stored at 4 °C, and they were diluted into 100 µM working solutions with pure acetonitrile when used. A stock solution of the control compound testosterone at a concentration of 10 mM was prepared in DMSO and stored at -20 °C, and it was diluted into a 400 µM working solution with pure acetonitrile when used. • (3) Termination solution preparation: The termination solution was acetonitrile containing the internal standard buspirone. The prepared termination solution was stored in a refrigerator at 2-8 °C. • (4) Liver microsome solution preparation: Microsomes from various species (CD-1 mouse, SD rat, and human) were diluted into a 20× working solution using 100 mM potassium phosphate buffer. The final concentration of the microsomes in the reaction system was 0.5 mg/mL. • (5) Reduced nicotinamide adenine dinucleotide phosphate (NADPH) regeneration system preparation: Appropriate amounts of nicotinamide adenine dinucleotide phosphate (NADP), glucose-6-phosphate (G6P), magnesium chloride (MgCl2), and glucose-6-phosphate dehydrogenase (G6PDH) were weighed to prepare stock solutions at concentrations of 65.33 mM, 330 mM, 300 mM, and 250 Units/mL, respectively. The four stock solutions described above were each added to an appropriate amount of buffer, and the mixture was mixed well by gently inverting up and down. […] Several incubation plates were prepared and named T0, T5, T10, T20, T40, T60, PB60, and NCF60, respectively. […] The NCF60 plate was incubated for 60 min with potassium phosphate buffer replacing the NADPH regeneration system solution. The PB60 plate was incubated for 60 min with potassium phosphate buffer replacing the liver microsomes. Samples under all conditions were prepared in triplicate.
(§2) 2 µL of the test compound or control compound and 100 µL of microsome working solution (containing 1 mg/mL liver microsome protein) were added to each of the T0, T5, T10, T20, T40, T60, and NCF60 plates, and 2 µL of the test compound and 100 µL of potassium phosphate buffer were added to the PB60 plate. The plates described above were then pre-incubated in a 37 °C water bath for about 5 min.
(§3) After the pre-incubation, 600 µL of the termination solution was first added to the T0 samples, followed by the addition of 98 µL of NADPH regeneration system working solution. The plate was sealed, shaken, and then allowed to wait for simultaneous processing with subsequent samples. Except for the NCF60 plate where 98 µL of potassium phosphate buffer was added to each sample well, 98 µL of NADPH regeneration system working solution was added to each sample well of the other incubation plates to initiate the reaction. In the reaction system, the final concentrations of the test compound and the control compound were 1 µM and 4 µM, respectively, the concentration of the liver microsomes was 0.5 mg/mL, and the final concentrations of DMSO and acetonitrile were 0.01% (v/v) and 0.99% (v/v), respectively.
(§4) After incubation for an appropriate time (such as 5, 10, 20, 40, and 60 min), 600 µL of the termination solution containing the internal standard was added to each test compound sample and control compound well to terminate the reaction. The plates were sealed, shaken well, and then centrifuged at 4000 ×g and 4 °C for 15 min.

[3] = In vitro liver microsome stability, SD rat; conditions: for CLint(liver): SD rat liver microsomes; for CLint scaled at 1 µM / half-life at 1 µM / microsomal CLint at 1 µM: SD, rat, liver microsomes, pH 7.4
Protocol: as §1, §2, §3, §4

[4] = In vitro liver microsome stability, CD-1 mouse; conditions: for CLint scaled at 1 µM / half-life at 1 µM / microsomal CLint at 1 µM: CD-1, mouse, liver microsomes, pH 7.4; for CLint(liver): CD-1 mouse liver microsomes
Protocol: as §1, §2, §3, §4

[5] = molecular target: T2, 5-HT1A (Homo sapiens, UniProt P08908); experiment: In vitro 5HT1A receptor function experiment (cAMP, forskolin-stimulated HEK293/5HT1A cells); format: cell-based; parameters: expressed in transfected cells; host or cells: HEK293; conditions: for EC50: forskolin 1 µM; for Emax: maximum activation rate
T2 sequence (P08908 1-422): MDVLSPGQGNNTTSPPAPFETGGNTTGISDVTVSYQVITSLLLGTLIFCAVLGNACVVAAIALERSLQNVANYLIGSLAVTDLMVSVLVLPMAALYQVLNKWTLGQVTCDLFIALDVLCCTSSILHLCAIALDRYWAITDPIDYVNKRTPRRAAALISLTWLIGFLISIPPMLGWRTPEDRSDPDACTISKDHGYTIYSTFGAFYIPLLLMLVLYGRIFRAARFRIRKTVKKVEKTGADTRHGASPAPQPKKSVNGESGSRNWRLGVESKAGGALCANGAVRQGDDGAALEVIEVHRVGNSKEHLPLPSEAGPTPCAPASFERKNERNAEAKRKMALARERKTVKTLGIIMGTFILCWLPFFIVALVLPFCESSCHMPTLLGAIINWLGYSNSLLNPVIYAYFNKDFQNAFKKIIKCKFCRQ
Protocol: 1.1.1 Cell information: HEK293/5HT1A: a stably transfected cell strain HEK293/5HT1A constructed by adopting 5HT1A receptor lentivirus to infect HEK293; growth culture medium: DMEM, 10% FBS, and 0.6 µg/mL puro; and cryopreservation culture medium: 70% culture medium, 20% FBS, and 10% DMSO.

[6] = molecular target: hERG potassium channel (Homo sapiens, UniProt Q12809); experiment: In vitro hERG experiment (whole-cell patch clamp); format: cell-based; conditions: for IC50: whole-cell patch clamp, tail current, room temperature
hERG potassium channel, sequence (Q12809 whole entry): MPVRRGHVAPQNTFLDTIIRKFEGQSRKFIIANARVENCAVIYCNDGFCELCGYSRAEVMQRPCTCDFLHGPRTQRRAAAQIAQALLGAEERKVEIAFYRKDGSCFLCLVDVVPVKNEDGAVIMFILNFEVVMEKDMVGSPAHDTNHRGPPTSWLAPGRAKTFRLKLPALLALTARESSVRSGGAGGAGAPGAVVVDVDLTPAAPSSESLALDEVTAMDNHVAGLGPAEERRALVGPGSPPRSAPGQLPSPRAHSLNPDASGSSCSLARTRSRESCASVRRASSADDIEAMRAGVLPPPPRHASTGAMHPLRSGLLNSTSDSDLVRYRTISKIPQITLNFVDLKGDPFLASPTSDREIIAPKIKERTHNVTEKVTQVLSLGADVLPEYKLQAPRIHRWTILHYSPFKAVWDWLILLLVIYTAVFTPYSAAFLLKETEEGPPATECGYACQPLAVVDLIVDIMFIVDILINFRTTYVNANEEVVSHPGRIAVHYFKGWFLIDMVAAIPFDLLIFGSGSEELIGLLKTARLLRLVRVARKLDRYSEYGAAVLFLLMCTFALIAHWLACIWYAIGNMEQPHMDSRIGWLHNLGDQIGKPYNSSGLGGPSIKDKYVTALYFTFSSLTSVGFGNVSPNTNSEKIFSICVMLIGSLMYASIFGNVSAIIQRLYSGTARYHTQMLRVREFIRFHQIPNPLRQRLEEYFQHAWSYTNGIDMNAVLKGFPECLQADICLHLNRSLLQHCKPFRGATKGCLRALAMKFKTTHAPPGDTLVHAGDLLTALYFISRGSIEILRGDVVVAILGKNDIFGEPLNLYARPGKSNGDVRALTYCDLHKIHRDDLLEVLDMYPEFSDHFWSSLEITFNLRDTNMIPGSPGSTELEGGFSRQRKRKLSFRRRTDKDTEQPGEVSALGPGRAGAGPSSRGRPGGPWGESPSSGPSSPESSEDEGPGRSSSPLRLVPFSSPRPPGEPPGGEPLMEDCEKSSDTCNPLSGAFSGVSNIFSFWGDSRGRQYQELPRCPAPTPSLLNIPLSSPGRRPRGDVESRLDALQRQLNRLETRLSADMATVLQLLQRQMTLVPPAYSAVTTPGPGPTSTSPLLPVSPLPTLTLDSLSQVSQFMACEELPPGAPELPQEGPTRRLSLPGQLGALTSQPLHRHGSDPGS
Protocol: Extracellular fluid: 140 mM NaCl, 3.5 mM KCl, 1 mM MgCl2, 2 mM CaCl2, 10 mM Glucose, 10 mM HEPES, and 1.25 mM NaH2PO4, with the pH adjusted to 7.4 by NaOH.
Under an inverted microscope, recording electrodes were controlled by a glass electrode micromanipulator (micromanipulation) to contact with the cell. A negative voltage was applied to form a GΩ seal. After forming the GΩ seal, a rapid capacitance compensation was given. Under the continuous negative voltage, the cell membrane was ruptured to establish a whole-cell recording mode. In the whole-cell recording mode, a slow capacitance compensation was given, and the values of membrane capacitance and series resistance were recorded.
Voltage stimulation scheme for cellular hERG potassium current: the cell membrane clamping voltage was -80 mV; the voltage was first elevated from -80 mV to +30 mV, held for 2.5 s, and rapidly changed to and held at -50 mV for 4 s, thus exciting the hERG channel tail current. Data were acquired every 10 s. Leak current detection was performed at -50 mV.
The coverslip with seeded cells was placed in the recording chamber of the inverted microscope. Negative control and test compounds flowed through the recording chamber in an ascending order of concentration by gravity perfusion to quickly act on the cells. During the recording, the extracellular fluid was continuously circulated by a vacuum pump. The current detected in a cell in the negative control was used as the background for the cell. Each compound concentration was allowed to act for 5 min or until the current was stabilized. All experiments were performed at room temperature.
The current of each compound concentration was first normalized according to (peak tail current compound)/(peak tail current vehicle), and then the corresponding inhibition rate was calculated according to (1 - (peak tail current compound)/(peak tail current vehicle)). Basic statistics were calculated for each concentration, including mean, standard deviation (SD), standard error (SE), and replicates (n). […] Curve fitting and calculation of IC50 were performed by GraphPad Prism 5.0 software.

[7] = system: tacrine-induced jaw tremors in rats; experiment: Tacrine-induced jaw tremor behavior in rats; format: in vivo, Sprague Dawley rats; conditions: for Inhibition of tacrine-induced jaw tremors in rats: compared to the model group; for Minimum effective dose: tacrine-induced jaw tremor in rats, compared with rotigotine
Protocol: Test compounds: The free bases of Examples 28, 32, and 33 in the present invention, which were self-prepared.
Positive control compound: Rotigotine.
Molding drug: Tacrine, SIGMA, A3773-1G.
Vehicle: Normal saline, Cisen Pharmaceutical Co., Ltd., 2111060723.
Sprague Dawley rats, male, 10/group, Shanghai Slac Laboratory Animal Co., Ltd.
Drug preparation: The test compound was taken, added to the vehicle, and subjected to ultrasonication.
Administration route and method: Administration was performed by intraperitoneal injection.
Administration frequency and duration: single administration.
The rats were stratified according to body weight and then randomly divided into a model group, an administration group, and a control group. The rats were acclimatized for three days before the experiment. On the day of the experiment, the vehicle or drug was first injected intraperitoneally, followed by an intraperitoneal injection of tacrine at a dose of 5 mg/kg (body weight) after 60 min. After administration, the rats were placed in a transparent observation box, and the jaw tremor counting was started 10 min later. The continuous counting duration was 5 min, and the jaw tremor frequency in the rats within 5 min was recorded.
The experimental data were expressed as x ± SEM. Inhibition rate (%) = 100% × (jaw tremor frequency in the rats of the model group - jaw tremor frequency in the rats of the administration group)/jaw tremor frequency in the rats of the model group, where *: p < 0.05, **: p < 0.01, and ***: p < 0.001 vs vehicle.

[8] = 1 mg/kg, 3 mg/kg, and 10 mg/kg, intraperitoneal, single administration, free base

SMILES: CCCN(CC1CCN(c2cccc3sccc23)CC1)[C@H]1CCc2nc(N)sc2C1 [Example 9, (S)-N^6-((1-(Benzo[b]thiophen-4-yl)piperidin-4-yl)methyl)-N^6-propyl-4,5,6,7-tetrahydrobenzo[d]thiazole-2,6-diamine]
- EC50 [1]: 2.1 nM
- Emax [1]: 111%
- CLint(liver) [2]: 33.4 mL/min/K g
- CLint scaled at 1 µM [2]: 8.9 to 48.3 mL/min/kg
- half-life at 1 µM [2]: 37.4 min
- microsomal CLint at 1 µM [2]: 37.1 µL/min/mg
- CLint(liver) [3]: 89.1 mL/min/K g
- CLint scaled at 1 µM [3]: 23.7 to 129 mL/min/kg
- half-life at 1 µM [3]: 28 min
- microsomal CLint at 1 µM [3]: 49.5 µL/min/mg
- CLint scaled at 1 µM [4]: 38.6 to 210 mL/min/kg
- half-life at 1 µM [4]: 28.2 min
- microsomal CLint at 1 µM [4]: 49.1 µL/min/mg
- CLint(liver) [4]: 194.5 mL/min/K g
- EC50 [5]: 30.2 nM
- Emax [5]: 101%

SMILES: CCCN(CC1CCN(C(=O)c2ccccc2)CC1)[C@H]1CCc2nc(N)sc2C1 [Example 17, (S)-(4-(((2-Amino-4,5,6,7-tetrahydrobenzo[d]thiazol-6-yl)(propyl)amino)methyl)piperidin-1-yl)(phenyl)methanone]
- EC50 [1]: 1.1 nM
- Emax [1]: 109%
- CLint(liver) [2]: 27.7 mL/min/K g
- CLint scaled at 1 µM [2]: 8.9 to 48.3 mL/min/kg
- half-life at 1 µM [2]: 45 min
- microsomal CLint at 1 µM [2]: 30.8 µL/min/mg
- CLint(liver) [3]: 76.9 mL/min/K g
- CLint scaled at 1 µM [3]: 23.7 to 129 mL/min/kg
- half-life at 1 µM [3]: 32.4 min
- microsomal CLint at 1 µM [3]: 42.7 µL/min/mg
- CLint scaled at 1 µM [4]: 38.6 to 210 mL/min/kg
- half-life at 1 µM [4]: 79.8 min
- microsomal CLint at 1 µM [4]: 17.4 µL/min/mg
- CLint(liver) [4]: 68.8 mL/min/K g
- EC50 [5]: 51.6 nM
- Emax [5]: 114%

SMILES: CCCN(CC1CCN(C(=O)c2ccc[nH]2)CC1)[C@H]1CCc2nc(N)sc2C1 [Example 26, (S)-(4-(((2-Amino-4,5,6,7-tetrahydrobenzo[d]thiazol-6-yl)(propyl)amino)methyl)piperidin-1-yl)(1H-pyrrol-2-yl)methanone]
- EC50 [1]: 1.2 nM
- Emax [1]: 109%
- EC50 [5]: 16.4 nM
- Emax [5]: 103%

SMILES: CCCN(CC1CCN(C(=O)c2cnn(C)c2)CC1)[C@H]1CCc2nc(N)sc2C1 [Example 28, (S)-(4-(((2-Amino-4,5,6,7-tetrahydrobenzo[d]thiazol-6-yl)(propyl)amino)methyl)piperidin-1-yl)(1-methyl-1H-pyrazol-4-yl)methanone]
- IC50 [6]: 20000 nM and 23300 nM
- Inhibition of tacrine-induced jaw tremors in rats [7, 8]: significantly inhibited
- Minimum effective dose [7]: lower than that of the positive control drug
- CLint(liver) [2]: 1.0 mL/min/K g
- CLint scaled at 1 µM [2]: < 8.9 mL/min/kg
- half-life at 1 µM [2]: 1180 min
- microsomal CLint at 1 µM [2]: 1.1 µL/min/mg
- CLint(liver) [3]: 2.7 mL/min/K g
- CLint scaled at 1 µM [3]: < 23.7 mL/min/kg
- half-life at 1 µM [3]: 891 min
- microsomal CLint at 1 µM [3]: 2.8 µL/min/mg
- CLint scaled at 1 µM [4]: < 38.6 mL/min/kg
- half-life at 1 µM [4]: 394 min
- microsomal CLint at 1 µM [4]: 13.9 µL/min/mg
- CLint(liver) [4]: 13.4 mL/min/K g
- EC50 [5]: 122 nM
- Emax [5]: 103%

SMILES: CCCN(CC1CCN(C(=O)C2CCCCC2)CC1)[C@H]1CCc2nc(N)sc2C1 [Example 29, (S)-(4-(((2-Amino-4,5,6,7-tetrahydrobenzo[d]thiazol-6-yl)(propyl)amino)methyl)piperidin-1-yl)(cyclohexyl)methanone]
- EC50 [1]: 2.8 nM
- Emax [1]: 111%
- EC50 [5]: 107 nM
- Emax [5]: 118%

SMILES: CCCN(CC1CCN(S(=O)(=O)c2ccc(F)c(Cl)c2)CC1)[C@H]1CCc2nc(N)sc2C1 [Example 31, (S)-N^6-((1-((3-Chloro-4-fluorophenyl)sulfonyl)piperidin-4-yl)methyl)-N^6-propyl-4,5,6,7-tetrahydrobenzo[d]thiazole-2,6-diamine]
- EC50 [1]: 3.6 nM
- Emax [1]: 103%
- EC50 [5]: 124 nM
- Emax [5]: 120%

SMILES: CCCN(CC1CCN(C(=O)N(C)C)CC1)[C@H]1CCc2nc(N)sc2C1 [Example 32, (S)-4-(((2-Amino-4,5,6,7-tetrahydrobenzo[d]thiazol-6-yl)(propyl)amino)methyl)-N,N-dimethylpiperidine-1-carboxamide]
- EC50 [1]: 1.3 nM
- Emax [1]: 120%
- hERG inhibition: functional activity lower than that of the pharmacodynamic target ([6]; hERG IC50 versus activity at pharmacodynamic target): ≥ 1000 fold
- IC50 [6]: 20000 nM and 17800 nM
- Inhibition of tacrine-induced jaw tremors in rats [7, 8]: significantly inhibited
- Minimum effective dose [7]: lower than that of the positive control drug
- CLint(liver) [2]: 10.3 mL/min/K g
- CLint scaled at 1 µM [2]: 8.9 to 48.3 mL/min/kg
- microsomal CLint at 1 µM [2]: 11.5 µL/min/mg
- CLint(liver) [3]: 38.5 mL/min/K g
- CLint scaled at 1 µM [3]: 23.7 to 129 mL/min/kg
- half-life at 1 µM [3]: 64.8 min
- microsomal CLint at 1 µM [3]: 21.4 µL/min/mg
- CLint scaled at 1 µM [4]: 38.6 to 210 mL/min/kg
- microsomal CLint at 1 µM [4]: 11.5 µL/min/mg
- CLint(liver) [4]: 45.5 mL/min/K g
- EC50 [5]: 25.7 nM
- Emax [5]: 102%

SMILES: CCCN(CCc1cccs1)[C@H]1CCc2c(O)cccc2C1 [rotigotine, Rotigotine, reference compound]
- Inhibition of tacrine-induced jaw tremors in rats ([7]; 10 mg/kg, positive control): significantly inhibited
